Key:
green foxtail [1] = assay: Test C postemergence; assay type: in vivo, Setaria viridis; details: 10 days
Procedure, shortened: (§1)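 Test material, in non-phytotoxic solvent with surfactant, was sprayed on the soil directly after seeding (preemergence) or on young plants of 2–10 cm with one to two leaves (postemergence). Greenhouse, 10 days; 0–100 visual control scale.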

ryegrass, Italian [2] = assay: Test C preemergence; assay type: in vivo, Lolium multiflorum; details: for Ryegrass, Italian plant response rating: preemergence, 0 to 100 scale (0 no effect, 100 complete control)
Procedure, shortened: as §1

oat, wild [3] = assay: Test C postemergence; assay type: in vivo, Avena fatua; details: 10 days
Procedure, shortened: as §1

pigweed, palmer [4] = assay: Test C postemergence; assay type: in vivo, Amaranthus palmeri; details: 10 days
Procedure, shortened: as §1

ducksalad = assay: Test D flooded paddy test; assay type: in vivo, Heteranthera limosa; details: 250 g ai/ha, applied to paddy water, visual rating after 13 to 14 days, scale 0 to 100 (0 no effect, 100 complete control)
Procedure, shortened: (§2)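 Plants grown to the 2-leaf stage; pots flooded to 3 cm above soil at treatment and held at that depth throughout. Test compounds applied directly to the paddy water. After 13 to 14 days in a greenhouse, response was rated visually versus controls on a 0 (no effect) to 100 (complete control) scale.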

horseweed = assay: Test C postemergence; assay type: in vivo, Erigeron canadensis; details: 10 days
Procedure, shortened: as §1

barnyardgrass [5] = assay: Test C postemergence; assay type: in vivo, Echinochloa crusgalli; details: 10 days
Procedure, shortened: as §1

barnyardgrass [6] = assay: Test D flooded paddy test; assay type: in vivo, Echinochloa crus-galli; details: 250 g ai/ha, applied to paddy water, visual rating after 13 to 14 days, scale 0 to 100 (0 no effect, 100 complete control)
Procedure, shortened: as §2

pigweed, palmer [7] = assay: Test C preemergence; assay type: in vivo, Amaranthus palmeri; details: for Pigweed, Palmer plant response rating: preemergence, 0 to 100 scale (0 no effect, 100 complete control)
Procedure, shortened: as §1

corn [8] = assay: Test C preemergence; assay type: in vivo, Zea mays; details: for Corn plant response rating: preemergence, 0 to 100 scale (0 no effect, 100 complete control)
Procedure, shortened: as §1

ragweed [9] = assay: Test C postemergence; assay type: in vivo, Ambrosia artemisiifolia; details: 125 g ai/ha, 10 days
Procedure, shortened: as §1

kochia [10] = assay: Test C preemergence; assay type: in vivo, Bassia scoparia; details: for Kochia plant response rating: preemergence, 0 to 100 scale (0 no effect, 100 complete control)
Procedure, shortened: as §1

oat, wild [11] = assay: Test C preemergence; assay type: in vivo, Avena fatua; details: for Oat, Wild plant response rating: preemergence, 0 to 100 scale (0 no effect, 100 complete control)
Procedure, shortened: as §1

soybean [12] = assay: Test C postemergence; assay type: in vivo, Glycine max; details: 125 g ai/ha, 10 days
Procedure, shortened: as §1

blackgrass [13] = assay: Test C postemergence; assay type: in vivo, Alopecurus myosuroides; details: 10 days
Procedure, shortened: as §1

corn [14] = assay: Test C postemergence; assay type: in vivo, Zea mays; details: 10 days
Procedure, shortened: as §1

galium = assay: Test C postemergence; assay type: in vivo, Galium aparine; details: 10 days
Procedure, shortened: as §1

wheat [15] = assay: Test C preemergence; assay type: in vivo, Triticum aestivum; details: for Wheat plant response rating: preemergence, 0 to 100 scale (0 no effect, 100 complete control)
Procedure, shortened: as §1

rice = assay: Test D flooded paddy test; assay type: in vivo, Oryza sativa; details: 250 g ai/ha, applied to paddy water, visual rating after 13 to 14 days, scale 0 to 100 (0 no effect, 100 complete control)
Procedure, shortened: as §2

ragweed [16] = assay: Test C preemergence; assay type: in vivo, Ambrosia artemisiifolia; details: for Ragweed plant response rating: preemergence, 0 to 100 scale (0 no effect, 100 complete control)
Procedure, shortened: as §1

sedge, umbrella = assay: Test D flooded paddy test; assay type: in vivo, Cyperus difformis; details: 250 g ai/ha, applied to paddy water, visual rating after 13 to 14 days, scale 0 to 100 (0 no effect, 100 complete control)
Procedure, shortened: as §2

soybean [17] = assay: Test C preemergence; assay type: in vivo, Glycine max; details: for Soybean plant response rating: preemergence, 0 to 100 scale (0 no effect, 100 complete control)
Procedure, shortened: as §1

ryegrass, Italian [18] = assay: Test C postemergence; assay type: in vivo, Lolium multiflorum; details: 125 g ai/ha, 10 days
Procedure, shortened: as §1

green foxtail [19] = assay: Test C preemergence; assay type: in vivo, Setaria viridis; details: for Foxtail, Green plant response rating: preemergence, 0 to 100 scale (0 no effect, 100 complete control)
Procedure, shortened: as §1

barnyardgrass [20] = assay: Test C preemergence; assay type: in vivo, Echinochloa crusgalli; details: for Plant response rating, Barnyardgrass: Preemergence; for Barnyardgrass plant response rating: preemergence
Procedure, shortened: as §1

wheat [21] = assay: Test C postemergence; assay type: in vivo, Triticum aestivum; details: 125 g ai/ha, 10 days
Procedure, shortened: as §1

blackgrass [22] = assay: Test C preemergence; assay type: in vivo, Alopecurus myosuroides; details: for Plant response rating, Blackgrass: Preemergence; for Blackgrass plant response rating: preemergence
Procedure, shortened: as §1

kochia [23] = assay: Test C postemergence; assay type: in vivo, Bassia scoparia; details: 10 days
Procedure, shortened: as §1

[24] = 125 g ai/ha, postemergence, 0 to 100 scale, 0 no effect, 100 complete control
[25] = Postemergence, 500 g ai/ha, visual 0 to 100 scale (0 no effect, 100 complete control)
[26] = postemergence, 0 to 100 scale, 0 no effect, 100 complete control
[27] = 500 g ai/ha, visual rating after 10 days, 0 to 100 scale (0 no effect, 100 complete control)
[28] = Test C, 125 g ai/ha, 0 to 100 scale (0 no effect, 100 complete control)
[29] = 500 g ai/ha, postemergence, 0 to 100 scale (0 no effect, 100 complete control)
[30] = Postemergence, 125 g ai/ha, 0 to 100 scale (0 no effect, 100 complete control)
[31] = Preemergence, 125 g ai/ha, 0 to 100 scale, 0 no effect, 100 complete control
[32] = Postemergence, 0 to 100 scale (0 no effect, 100 complete control)
[33] = 500 g ai/ha, 0 to 100 scale (0 no effect, 100 complete control)
[34] = 125 g ai/ha, 0 to 100 scale, 0 no effect, 100 complete control

COC[C@H]1CN(C(=O)c2cc(-n3cnc(C(C)(C)O)n3)ccc2C)c2cccc(Cl)c2O1 [Compound 276]
Plant response rating, Foxtail, Green (green foxtail [1]; [24]): 40
Plant response rating, Foxtail, Green (green foxtail [1]; [25]): 90
Ryegrass, Italian plant response rating (ryegrass, Italian [2]; 500 g ai/ha): 90
Ryegrass, Italian plant response rating (ryegrass, Italian [2]; Test C, 125 g ai/ha): 90
Plant response rating, Oat, Wild (oat, wild [3]; [24]): 80
Plant response rating, Pigweed, Palmer (pigweed, palmer [4]; [24]): 60
Plant response rating, Ducksalad (Flood) (ducksalad): 70
Plant response rating, Horseweed (horseweed; [24]): 50
Plant response rating, Horseweed (horseweed; [25]): 40
Plant response rating, Barnyardgrass (barnyardgrass [5]; [24]): 30
Plant response rating, Barnyardgrass (barnyardgrass [5]; [25]): 90
Plant response rating, Barnyardgrass (Flood) (barnyardgrass [6]): 35
Pigweed, Palmer plant response rating (pigweed, palmer [7]; 500 g ai/ha): 100
Pigweed, Palmer plant response rating (pigweed, palmer [7]; Test C, 125 g ai/ha): 100
Corn plant response rating (corn [8]; 500 g ai/ha): 90
Corn plant response rating (corn [8]; Test C, 125 g ai/ha): 50
Plant response rating, Ragweed (ragweed [9]; [26]): 60
Kochia plant response rating (kochia [10]; 500 g ai/ha): 90
Kochia plant response rating (kochia [10]; Test C, 125 g ai/ha): 90
Oat, Wild plant response rating (oat, wild [11]; 500 g ai/ha): 90
Oat, Wild plant response rating (oat, wild [11]; Test C, 125 g ai/ha): 80
Plant response rating, Soybean (soybean [12]; [26]): 100
Plant response rating, Blackgrass (blackgrass [13]; [24]): 60
Plant response rating, Blackgrass (blackgrass [13]; [25]): 90
Plant response rating, Corn (corn [14]; [24]): 50
Plant response rating, Corn (corn [14]; [25]): 90
Plant response rating, Galium (galium; [24]): 100
Plant response rating, Galium (galium; [25]): 100
Wheat plant response rating (wheat [15]; 500 g ai/ha): 90
Wheat plant response rating (wheat [15]; Test C, 125 g ai/ha): 80
Plant response rating, Rice (Flood) (rice): 20
Ragweed plant response rating (ragweed [16]; 500 g ai/ha): 80
Ragweed plant response rating (ragweed [16]; Test C, 125 g ai/ha): 60
Plant response rating, Sedge, Umbrella (Flood) (sedge, umbrella): 80
Soybean plant response rating (soybean [17]; 500 g ai/ha): 100
Soybean plant response rating (soybean [17]; Test C, 125 g ai/ha): 100
Plant response rating, Ryegrass, Italian (ryegrass, Italian [18]; [26]): 80
Foxtail, Green plant response rating (green foxtail [19]; 500 g ai/ha): 100
Foxtail, Green plant response rating (green foxtail [19]; Test C, 125 g ai/ha): 100
Plant response rating, Barnyardgrass (barnyardgrass [20]; [27]): 100
Barnyardgrass plant response rating (barnyardgrass [20]; [28]): 90
Plant response rating, Wheat (wheat [21]; [26]): 60
Plant response rating, Blackgrass (blackgrass [22]; [27]): 90
Blackgrass plant response rating (blackgrass [22]; [28]): 90
Plant response rating, Kochia (kochia [23]; [24]): 70

CCOC[C@H]1CN(C(=O)c2cc(-n3cnc(C(C)(C)C)n3)ccc2C)c2cccc(Cl)c2O1 [Compound 413]
Plant response rating, Foxtail, Green (green foxtail [1]; [29]): 60
Plant response rating, Foxtail, Green (green foxtail [1]; [30]): 10
Ryegrass, Italian plant response rating (ryegrass, Italian [2]; 500 g ai/ha): 100
Plant response rating, Ryegrass, Italian (ryegrass, Italian [2]; [31]): 80
Plant response rating, Oat, Wild (oat, wild [3]; [29]): 10
Plant response rating, Oat, Wild (oat, wild [3]; [30]): 0
Plant response rating, Pigweed, Palmer (pigweed, palmer [4]; [29]): 100
Plant response rating, Pigweed, Palmer (pigweed, palmer [4]; [30]): 100
Plant response rating, Ducksalad (Flood) (ducksalad): 15
Plant response rating, Horseweed (horseweed; [29]): 60
Plant response rating, Horseweed (horseweed; [30]): 10
Plant response rating, Barnyardgrass (barnyardgrass [5]; [29]): 40
Plant response rating, Barnyardgrass (barnyardgrass [5]; [30]): 20
Plant response rating, Barnyardgrass (Flood) (barnyardgrass [6]): 35
Pigweed, Palmer plant response rating (pigweed, palmer [7]; 500 g ai/ha): 100
Plant response rating, Pigweed, Palmer (pigweed, palmer [7]; [31]): 90
Corn plant response rating (corn [8]; 500 g ai/ha): 10
Plant response rating, Corn (corn [8]; [31]): 0
Plant response rating, Ragweed (ragweed [9]; [32]): 70
Kochia plant response rating (kochia [10]; 500 g ai/ha): 80
Plant response rating, Kochia (kochia [10]; [31]): 10
Oat, Wild plant response rating (oat, wild [11]; 500 g ai/ha): 0
Plant response rating, Oat, Wild (oat, wild [11]; [31]): 0
Plant response rating, Soybean (soybean [12]; [32]): 100
Plant response rating, Blackgrass (blackgrass [13]; [29]): 20
Plant response rating, Blackgrass (blackgrass [13]; [30]): 20
Plant response rating, Corn (corn [14]; [29]): 20
Plant response rating, Corn (corn [14]; [30]): 10
Plant response rating, Galium (galium; [29]): 100
Plant response rating, Galium (galium; [30]): 90
Wheat plant response rating (wheat [15]; 500 g ai/ha): 0
Plant response rating, Wheat (wheat [15]; [31]): 0
Plant response rating, Rice (Flood) (rice): 10
Ragweed plant response rating (ragweed [16]; 500 g ai/ha): 70
Plant response rating, Ragweed (ragweed [16]; [31]): 60
Plant response rating, Sedge, Umbrella (Flood) (sedge, umbrella): 45
Soybean plant response rating (soybean [17]; 500 g ai/ha): 100
Plant response rating, Soybean (soybean [17]; [31]): 70
Plant response rating, Ryegrass, Italian (ryegrass, Italian [18]; [32]): 40
Foxtail, Green plant response rating (green foxtail [19]; 500 g ai/ha): 100
Plant response rating, Foxtail, Green (green foxtail [19]; [31]): 80
Barnyardgrass plant response rating (barnyardgrass [20]; [33]): 90
Plant response rating, Barnyardgrass (barnyardgrass [20]; [34]): 50
Plant response rating, Wheat (wheat [21]; [32]): 10
Blackgrass plant response rating (blackgrass [22]; [33]): 60
Plant response rating, Blackgrass (blackgrass [22]; [34]): 30
Plant response rating, Kochia (kochia [23]; [29]): 90
Plant response rating, Kochia (kochia [23]; [30]): 90

— patent publication US20260262643A1, “HERBICIDAL BENZOXAZINES” (FMC CORPORATION, priority 2022, published 2026)
